Measurements taken from paper PMC12713704, “Crystal structure of fatty acid thioesterase A bound by 129 fragments provides diverse development opportunities” (Pest Management Science, 2025).
Where “and” joins values, the source holds several entries; their conditions need not be identical. Equal entries are not always repeated. Where two headings read alike, the source gives them in different places.

Assays:
[1] = target: T1, FatA (AtFatA) (Arabidopsis thaliana, UniProt Q42561); assay: biochemical; design: SPR (Biacore 8K), His-captured FatA; steady-state affinity KD and kinetic fit (1:1 model); conditions: steady-state affinity fit
T1 construct: residues 1-74 (chloroplast transit peptide) removed; noncleavable C-terminal His6 tag; codon-optimised gene in pET-24a(+), E. coli BL21(DE3); dimer by native mass spectrometry
T1 sequence (Q42561 75-362): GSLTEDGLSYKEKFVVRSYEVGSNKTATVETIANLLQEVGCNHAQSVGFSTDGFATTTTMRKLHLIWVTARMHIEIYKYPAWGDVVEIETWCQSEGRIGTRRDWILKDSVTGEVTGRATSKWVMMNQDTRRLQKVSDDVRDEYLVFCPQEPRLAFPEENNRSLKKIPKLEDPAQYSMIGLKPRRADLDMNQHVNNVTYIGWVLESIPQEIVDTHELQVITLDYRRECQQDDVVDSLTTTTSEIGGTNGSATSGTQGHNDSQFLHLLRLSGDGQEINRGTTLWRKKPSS
Protocol: FatA was immobilized on an NTA sensor chip (GE Healthcare, Chicago, IL, USA) using a Biacore 8K, captured via His‐tag and simultaneous amine coupling on EDC/NHS‐activated carboxyl groups (Immobilization buffer: 25 mM HEPES pH 7.4, 150 mM NaCl, 1 mM TCEP, 0.05% Tween 20). Equilibrium binding experiments were performed at 20 °C using a Biacore 8K instrument (GE Healthcare) with 25 mM HEPES pH 7.4, 150 mM NaCl, 1 mM TCEP, 0.05% Tween 20 and 2% DMSO as running buffer for compound testing. Compounds were injected over the chip in two‐fold dilution series either in multi‐cycle mode (60s/180s association/dissociation time) or single‐cycle kinetic mode (160 s/1800s association/dissociation time). Indicative K D values were obtained by steady‐state affinity fitting to a 1:1 binding site model.

[2] = target: T1, FatA (AtFatA); assay: biochemical; design: SPR (Biacore 8K, immobilized His-tagged FatA), steady-state affinity and 1:1 kinetic fits, 20 °C; conditions: for kon: read-out: ka (1/Ms), kinetic fit; for koff: read-out: kd (1/s), kinetic fit; for ka / kd: kinetic fit; for ka: ka (1/Ms); for kd: kd (1/s)
Text: The analogues were used to explore the binding capabilities of the herbicide pocket as well as tolerance to heterocyclic ring size. […] The resulting 60 compounds were either purchased from Enamine REAL or synthesized in‐house. […] Chemical structures of all x1816 analogues tested are available in Data S1. Binding data can be found in Data S2.

[3] = target: T1, FatA (AtFatA); assay: fluorescent CPM detection of CoA released from oleoyl-CoA; assay type: biochemical
[4] = target: T1, FatA (AtFatA); assay: X-ray crystal structure, fragment soak; conditions: crystal soak […], […] DMSO, pH […]; herbicide binding site
[5] = target: T1, FatA (AtFatA); assay: SPR, steady-state […] fit, His-captured and amine-coupled FatA; assay type: binding

Compound	Kd [2] [µM]	kon [2] [M⁻¹ s⁻¹]	koff [2] [s⁻¹]	further results
CC(=O)N1CC(C)(C)c2ccccc21 [x1816-FU57]	–	–	–	Kd [1]: > 100 µM
CCC(C)C(=O)N1c2ccccc2CCC1C (stereo not shown) [x1816-FU7]	1.96	4150	0.00811	–
CNC1CCN(c2ccccc2F)C1=O (stereo not shown) [x1573]	–	–	–	IC50 [3]: 29 µM
CC(=O)N1CCCc2cccnc21 [x1816-FU59]	–	–	–	Kd [1]: > 100 µM
Cc1cccc(C(=O)O)c1N [x1437]	–	–	–	X-ray crystal structure, fragment soak [4]: x1290 and x1437 which share a similar chemical motif and are both bound
O=C(Nc1ccccc1)N1CCCCCC1 [x1944*]	–	–	–	IC50 [3]: 43.9 µM
CC1CCc2ccccc2N1C(=O)CC(C)(C)C (stereo not shown) [x1816-FU14]	19.9	3010	0.06	–
CCC(=O)N1CCCc2ccccc2C1 [x1816-FU2]	0.156	–	0.0502	ka [2]: 321361.600232 M⁻¹ s⁻¹
CC(=O)N1CCC(C)c2ccccc21 (stereo not shown) [x1816-FU45]	–	–	–	Kd [1]: 93.8 µM
CC(=O)N1CCN(C)c2ncccc21 [x1816-FU56]	–	–	–	Kd [1]: > 100 µM
CC(C)CC(=O)N1c2ccccc2CCC1C (stereo not shown) [x1816-FU13]	8.7	8080	0.0703	–
COCC(=O)N1c2ccccc2CCC1C (stereo not shown) [x1816-FU12]	4.42	20000	0.0885	–
CNCC1COc2ccccc2O1 (stereo not shown) [x2004]	–	–	–	IC50 [3]: 25.6 µM
CC(=O)N1CCSc2ccccc2C1 [x1816-FU1_repeat]	–	–	–	ka [2]: 367000 M⁻¹ s⁻¹ and 305000 M⁻¹ s⁻¹; kd [2]: 0.0326 s⁻¹ and 0.0293 s⁻¹
Nc1cc(F)ccc1C(=O)O [x1290]	–	–	–	X-ray crystal structure, fragment soak [4]: x1290 and x1437 which share a similar chemical motif and are both bound
COCC(=O)N1CC(C)(C)c2ccccc21 [x1816-FU42]	–	–	–	Kd [1]: 57.7 µM
CC(=O)N1CCCc2cccc(F)c21 [x1816-FU10]	3.1	50900	0.158	–
Nc1ccc2oc(=O)ccc2c1 [x1463]	–	–	–	IC50 [3]: 142 µM
CCC1CCc2ccccc2N1C(C)=O (stereo not shown) [x1816-FU43]	–	–	–	Kd [1]: 68.1 µM
O=C(O)c1sccc1-n1cccc1 [x1425]	–	–	–	IC50 [3]: > 250 µM
CC(=O)N1CCCc2c(Cl)ccc(F)c21 [x1816-FU9]	3.06	59600	0.182	–
CC1CCc2ccccc2N1C(=O)NC(C)(C)C (stereo not shown) [x1816-FU44]	–	–	–	Kd [1]: 91.5 µM
CCCC(=O)N1c2ccccc2CCC1C (stereo not shown) [x1816-FU4_repeat]	–	–	–	ka [2]: 12300 M⁻¹ s⁻¹ and 10600 M⁻¹ s⁻¹; kd [2]: 0.0147 s⁻¹ and 0.0135 s⁻¹
NS(=O)(=O)c1nc2ccccc2[nH]1 [x1168/x1231]	–	–	–	IC50 ([3]; […] oleoyl-CoA, […] FatA, pH […], room temperature, active site (also dimer site), unreliable): > 250 µM
CC(=O)N1CC(C)(CO)Cc2ccccc21 (stereo not shown) [x1816-FU11]	3.13	8170	0.0256	–
CC(=O)N1CCCc2ncccc21 [x1816-FU60]	–	–	–	Kd [1]: > 100 µM
CC(=O)N1c2ccccc2C(C)(C)CC1C (stereo not shown) [x1816-FU58]	–	–	–	Kd [1]: > 100 µM
CC(=O)N1c2ccccc2C(C)CC1(C)C (stereo not shown) [x1816-FU54]	–	–	–	Kd [1]: > 100 µM
CC(=O)N1CCSc2ccccc2C1 [x1816-FU1]	0.0741	463000	0.0343	Kd [5]: ~0.09 µM
CCC(=O)N1CCCc2ccccc2C1 [x1816-FU2_repeat]	–	–	–	ka [2]: 163000 M⁻¹ s⁻¹ and 124000 M⁻¹ s⁻¹; kd [2]: 0.0811 s⁻¹ and 0.0645 s⁻¹

Continued, in another order:

Kd [2] [µM]	kon [2] [M⁻¹ s⁻¹]	koff [2] [s⁻¹]	Compound	further results
1.55	45000	0.0695	CC(=O)N1c2ccccc2OCC1C (stereo not shown) [x1816-FU5]	–
1.63	13600	0.0222	CC(C)C(=O)N1c2ccccc2CCC1C (stereo not shown) [x1816-FU6]	–
1.16	10100	0.0117	CCCC(=O)N1c2ccccc2CCC1C (stereo not shown) [x1816-FU4]	–
2.47	13900	0.0343	CCC(=O)N1c2ccccc2CCC1C (stereo not shown) [x1816-FU8]	–
